What was measured:
[1] = assay type: in vitro ADME, rat; conditions: low QC (7.08/5.22/6.55/6.68 ng/mL), n = 6
Protocol: The quality control (QC) samples were prepared by the same procedure described above. Furthermore, low, medium, high concentrations of QC samples of each component were 7.08, 141.50, 1132 ng/mL for butylidenephthalide; 5.22, 104.40, 835.20 ng/mL for ligustilide; 6.55, 131, 1048 ng/mL for senkyunolide A and 6.68, 667.50, 10,680 ng/mL for ferulic acid, respectively.
The stability study of biological samples containing short-term, long-term, freeze-thaw and post-preparation stability could evaluate the influence of sample handling environment and sample storage environment on active component content. Six replicates of QC samples at three concentration levels were analyzed for all stability studies. Short-term stability was evaluated by keeping all QC samples at room temperature for 4 h before processing. Long-term stability was evaluated after all QC samples were stored at −20 °C for 60 days. Freeze-thaw stability of QC samples of each concentration was evaluated after three freeze (−20 °C)-thaw (room temperature) cycles. Post-preparation stability was to observe the stability of the extracted QC samples after waiting for 24 h in the autosampler at 4 °C. The concentration of each QC sample was calculated by the standard curve prepared freshly on the same day. The samples were considered stable when RSD of QC samples at three concentration levels was within ±15%.

[2] = Pharmacokinetic study in rat plasma after oral administration of RCR and WCR oral liquid medicine; assay type: in vivo, Sprague-Dawley rats; conditions: n = 6, mean ± SD; for AUC(0-inf) / AUC(0-t) / Cmax / MRT / Tmax / half-life: male, Sprague-Dawley, rat, plasma, po, 24.01 g/kg
Protocol: RCR (300 g) and WCR (300 g) were weighed and soaked in water (6:1, v/w) for 20 min respectively, then refluxed for 30 min and extracted twice. Finally, the extracts of RCR and WCR were filtered, combined, and concentrated to 1.20 g/mL respectively. The concentrated extracts were stored in a refrigerator at 4 °C before use.
Male adult Sprague-Dawley rats (220–250 g) were obtained from the Laboratory Animal Center of Shanxi Medical University (Shanxi, China). The rats were fed in an air-conditioned animal center with a natural light-dark cycle for a week, the temperature was maintained at 22–26 °C and the relative humidity was maintained at 60 ± 10%. All procedures involving the animal were in accordance with the Regulations of Experimental Animal Administration issued by the State Committee of Science and Technology of People’s Republic of China. It is worth noting that all rats were fasted with free access to water for 12 h prior to the experiment.
The collected plasma samples (100 µL) spiked with IS (10 µL) and methanol (10 µL) were vortex-mixed for 5 min. Subsequently, methanol of 300 µL was added for protein precipitation. The mixtures were vortexed for 5 min and then centrifuged at 13,000 rpm for 20 min. Finally, the supernatant was transferred to another clean centrifuge tube and centrifuged again in the same manner. The supernatant of 5 µL was injected into the UHPLC-Q-Exactive-Orbitrap/MS system for analysis.
Twelve rats were randomly divided into two groups (n = 6 per group), an orally administered liquid medicine of RCR and WCR respectively at the same dose of 24.01 g/kg. The blood samples (0.3 mL) from the suborbital vein of each rat were collected in a 1.5 mL heparinized centrifuge tube before dosing and at 0.033, 0.083, 0.16, 0.25, 0.5, 1, 2, 4, 8, 11, 24, 48 h after administration. The blood samples were immediately centrifuged at 13,000 rpm for 10 min and the plasma separated out were transferred to clean centrifuge tubes and stored at −20 °C until analysis.
The pharmacokinetic parameters of the analytes were evaluated using Phoenix WinNonlin software (version 6.0, Pharsight Corporation, CA, USA). The mean plasma concentration-time curves were presented using Graphpad Prism (version 6.0, Graghpad Software, San Diego, CA, USA).

| AUC(0-inf) ([2]; oral RCR 24.01 g/kg) | AUC(0-t) ([2]; oral RCR 24.01 g/kg) | Cmax ([2]; oral RCR 24.01 g/kg) | MRT ([2]; oral RCR 24.01 g/kg) | Tmax ([2]; oral RCR 24.01 g/kg) | half-life ([2]; oral RCR 24.01 g/kg) | AUC(0-inf) ([2]; oral WCR 24.01 g/kg) | AUC(0-t) ([2]; oral WCR 24.01 g/kg) | Cmax ([2]; oral WCR 24.01 g/kg) | MRT ([2]; oral WCR 24.01 g/kg) | Tmax ([2]; oral WCR 24.01 g/kg) | half-life ([2]; oral WCR 24.01 g/kg) | Cl ([2]; oral RCR 24.01 g/kg) | Vd ([2]; oral RCR 24.01 g/kg) | Cl ([2]; oral WCR 24.01 g/kg) | Vd ([2]; oral WCR 24.01 g/kg) | SMILES | further results |
| --- | --- | --- | --- | --- | --- | --- | --- | --- | --- | --- | --- | --- | --- | --- | --- | --- | --- |
| 13400 ng·h/mL | 13100 ng·h/mL | 47700 ng/mL | 3.21 ± 1.66 h | 0.12 ± 0.09 h |  | 4620 ± 1290 ng·h/mL | 4460 ± 1240 ng·h/mL | 9530 ± 6500 ng/mL | 4.05 ± 1.07 h | 0.06 ± 0.03 h |  | 24.08 ± 14.39 mL/h | 283.95 ± 234.10 mL | 178.84 ± 54.46 mL/h | 1519.30 ± 1321.97 mL | COc1cc(/C=C/C(=O)O)ccc1O [Ferulic Acid, ferulic acid] | t1/2 ([2]; oral RCR 24.01 g/kg): 8.57 ± 4.42 h; t1/2 ([2]; oral WCR 24.01 g/kg): 5.33 ± 2.97 h |
| 4110 ± 285 ng·h/mL | 4080 ± 201 ng·h/mL | 289 ± 8.1 ng/mL | 13.5 ± 1.74 h | 0.22 ± 0.05 h | 8.5 ± 1.41 h | 4040 ± 1480 ng·h/mL | 3310 ± 579 ng·h/mL | 192 ± 8.48 ng/mL | 21.9 ± 11.2 h | 0.3 ± 0.18 h | 14.6 ± 7.56 h | 128.76 ± 19.21 mL/h | 1579.29 ± 363.96 mL | 568.93 ± 184.86 mL/h | 10,580.62 ± 2206.75 mL | CCC/C=C1\OC(=O)C2=C1CCC=C2 [Ligustilide, ligustilide] |  |
| 1840 ± 501 ng·h/mL | 1640 ± 438 ng·h/mL | 653 ± 581 ng/mL | 18.8 ± 4.24 h | 0.11 ± 0.09 h | 13.4 ± 3.56 h | 861 ± 267 ng·h/mL | 804 ± 279 ng·h/mL | 151 ± 84.3 ng/mL | 9.86 ± 1.53 h | 0.18 ± 0.07 h | 6.32 ± 1.72 h | 392.87 ± 142.41 mL/h | 7378.16 ± 2565.01 mL |  | 8275.68 ± 5216.70 mL | CCCCC1OC(=O)C2=C1CCC=C2 (stereo not shown) [Senkyunolide A, senkyunolide A] |  |

| SMILES | AUC(0-inf) ([2]; oral RCR 24.01 g/kg) | AUC(0-t) ([2]; oral RCR 24.01 g/kg) | Cmax ([2]; oral RCR 24.01 g/kg) | MRT ([2]; oral RCR 24.01 g/kg) | Tmax ([2]; oral RCR 24.01 g/kg) | half-life ([2]; oral RCR 24.01 g/kg) | AUC(0-inf) ([2]; oral WCR 24.01 g/kg) | AUC(0-t) ([2]; oral WCR 24.01 g/kg) | Cmax ([2]; oral WCR 24.01 g/kg) | MRT ([2]; oral WCR 24.01 g/kg) | Tmax ([2]; oral WCR 24.01 g/kg) | half-life ([2]; oral WCR 24.01 g/kg) | Cl ([2]; oral RCR 24.01 g/kg) | Vd ([2]; oral RCR 24.01 g/kg) | Cl ([2]; oral WCR 24.01 g/kg) | Vd ([2]; oral WCR 24.01 g/kg) | further results |
| --- | --- | --- | --- | --- | --- | --- | --- | --- | --- | --- | --- | --- | --- | --- | --- | --- | --- |
| CCC/C=C1\OC(=O)c2ccccc21 [Butylidenephthalide, butylidenephthalide] | 782 ± 252 ng·h/mL | 743 ± 279 ng·h/mL | 288 ± 370 ng/mL | 14.1 ± 6.54 h | 0.25 ± 0.14 h | 11.4 ± 5.88 h | 402 ± 77.1 ng·h/mL | 384 ± 90.9 ng·h/mL | 52.1 ± 16.6 ng/mL | 13.9 ± 3.63 h | 0.27 ± 0.14 h | 11 ± 3.75 h | 36.61 ± 16.33 mL/h | 633.78 ± 424.90 mL | 234.35 ± 44.10 mL/h | 3802.37 ± 1676.69 mL | Post-Preparative Stability RE ([1]; extracted rat plasma, 24 h in autosampler at 4 °C): 6.90%; Bench-Top Stability RE ([1]; rat plasma, room temperature 4 h): 1.88%; Freeze-Thaw Stability RE ([1]; rat plasma, three freeze (−20 °C)-thaw cycles): −10.99%; Long-Term Stability RE ([1]; rat plasma, −20 °C for 60 days): 4.03% |
